# Calls of active or inactive are those of the source. The calls are words filed in the database; no cut-off is given here.
# Assays:
# [1] = target: Neuronal acetylcholine receptor subunit alpha-7 (Homo sapiens) (UniProt P36544); assay: Antagonist activity at human alpha7 nAChR expressed in acetylcholine-induced Xenopus laevis oocytes treated for 1 sec followed by acetylcholine stimulation 1 min post-compound treatment at holding potential of -70 mV by two electrode voltage-clamp assay; format: cell-based; conditions: Oocyte, filed as antagonist, time 61.0 sec
# Neuronal acetylcholine receptor subunit alpha-7 (Homo sapiens), sequence (P36544 whole entry): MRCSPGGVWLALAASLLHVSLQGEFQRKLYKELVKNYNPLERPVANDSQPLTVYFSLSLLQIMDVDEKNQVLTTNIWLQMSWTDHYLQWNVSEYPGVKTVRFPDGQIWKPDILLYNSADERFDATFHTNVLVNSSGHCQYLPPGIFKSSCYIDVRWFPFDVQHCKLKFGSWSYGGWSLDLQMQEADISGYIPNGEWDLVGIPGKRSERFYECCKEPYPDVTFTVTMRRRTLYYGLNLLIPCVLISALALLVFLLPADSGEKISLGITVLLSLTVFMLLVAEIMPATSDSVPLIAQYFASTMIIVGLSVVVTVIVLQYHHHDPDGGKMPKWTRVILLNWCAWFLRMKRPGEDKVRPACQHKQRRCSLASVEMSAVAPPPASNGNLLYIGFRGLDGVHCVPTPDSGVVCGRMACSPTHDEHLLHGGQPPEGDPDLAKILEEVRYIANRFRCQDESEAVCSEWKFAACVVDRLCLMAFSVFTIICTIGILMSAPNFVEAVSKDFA
# [2] = target: Neuronal acetylcholine receptor; alpha9/alpha10 (Homo sapiens) (UniProt Q9UGM1+Q9GZZ6); assay: Partial agonist activity at human alpha9alpha10 nAChR expressed in acetylcholine-induced Xenopus laevis oocytes assessed as residual activity treated for 1 sec followed by acetylcholine stimulation for 1 min post-compound treatment at holding potential of -70 mV by two electrode voltage-clamp assay; format: cell-based; conditions: Oocyte, time 61.0 sec
# [3] = target: Neuronal acetylcholine receptor; alpha3/beta4 (Homo sapiens, UniProt P30926+P32297); assay: Displacement of [3H]-Epibatidine from alpha3beta4 nAChR (unknown origin) expressed in SH-EP1 cell membrane assessed as inhibition constant by beta counter method; format: cell membranes
# Neuronal acetylcholine receptor; alpha3/beta4, sequence (P30926 whole entry): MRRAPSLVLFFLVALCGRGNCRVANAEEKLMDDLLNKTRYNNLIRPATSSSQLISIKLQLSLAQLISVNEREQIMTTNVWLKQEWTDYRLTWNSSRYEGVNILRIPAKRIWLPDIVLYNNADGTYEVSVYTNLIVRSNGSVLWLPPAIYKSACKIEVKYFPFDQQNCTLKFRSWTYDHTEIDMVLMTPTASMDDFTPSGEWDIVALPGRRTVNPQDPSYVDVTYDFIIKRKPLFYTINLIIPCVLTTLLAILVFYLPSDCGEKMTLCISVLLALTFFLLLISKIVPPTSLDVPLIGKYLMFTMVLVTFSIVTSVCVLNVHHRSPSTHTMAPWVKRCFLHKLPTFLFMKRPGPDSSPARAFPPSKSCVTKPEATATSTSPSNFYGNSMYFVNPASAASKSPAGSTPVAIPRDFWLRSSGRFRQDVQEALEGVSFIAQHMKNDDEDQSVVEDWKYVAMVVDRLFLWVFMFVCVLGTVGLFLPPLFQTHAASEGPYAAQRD
# Neuronal acetylcholine receptor; alpha3/beta4, sequence (P32297 whole entry): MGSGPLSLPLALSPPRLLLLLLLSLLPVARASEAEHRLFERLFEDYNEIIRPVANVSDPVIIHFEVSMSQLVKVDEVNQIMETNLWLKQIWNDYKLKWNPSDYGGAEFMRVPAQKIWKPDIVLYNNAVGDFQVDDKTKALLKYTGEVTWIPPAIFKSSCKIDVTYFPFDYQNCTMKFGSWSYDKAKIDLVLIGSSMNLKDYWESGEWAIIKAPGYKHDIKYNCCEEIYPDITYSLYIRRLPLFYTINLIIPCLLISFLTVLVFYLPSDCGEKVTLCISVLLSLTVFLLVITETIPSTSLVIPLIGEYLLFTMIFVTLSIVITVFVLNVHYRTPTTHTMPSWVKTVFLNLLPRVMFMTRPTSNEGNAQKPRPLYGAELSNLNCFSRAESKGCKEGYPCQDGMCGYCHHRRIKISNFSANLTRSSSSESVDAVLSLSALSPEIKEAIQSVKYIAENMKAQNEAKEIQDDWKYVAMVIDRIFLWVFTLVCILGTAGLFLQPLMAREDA
# [4] = target: Neuronal acetylcholine receptor; alpha4/beta2 (Homo sapiens, UniProt P17787+P43681); assay: Displacement of [3H]-Epibatidine from alpha4beta2 nAChR (unknown origin) expressed in HEK293 cell membrane assessed as inhibition constant by beta counter method; format: cell membranes
# Neuronal acetylcholine receptor; alpha4/beta2, sequence (P17787 whole entry): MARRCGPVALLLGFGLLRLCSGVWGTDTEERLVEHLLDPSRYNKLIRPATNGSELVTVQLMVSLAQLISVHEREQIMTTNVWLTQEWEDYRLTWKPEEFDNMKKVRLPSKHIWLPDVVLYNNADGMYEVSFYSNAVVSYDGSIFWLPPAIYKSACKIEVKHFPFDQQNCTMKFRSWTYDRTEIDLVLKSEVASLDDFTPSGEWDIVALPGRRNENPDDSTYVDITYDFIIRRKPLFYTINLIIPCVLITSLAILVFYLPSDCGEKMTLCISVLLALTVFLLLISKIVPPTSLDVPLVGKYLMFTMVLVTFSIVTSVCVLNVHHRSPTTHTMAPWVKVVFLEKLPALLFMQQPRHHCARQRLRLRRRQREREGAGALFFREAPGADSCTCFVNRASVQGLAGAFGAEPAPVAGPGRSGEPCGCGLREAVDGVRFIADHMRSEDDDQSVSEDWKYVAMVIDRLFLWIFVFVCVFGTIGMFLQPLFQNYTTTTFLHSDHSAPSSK
# Neuronal acetylcholine receptor; alpha4/beta2, sequence (P43681 whole entry): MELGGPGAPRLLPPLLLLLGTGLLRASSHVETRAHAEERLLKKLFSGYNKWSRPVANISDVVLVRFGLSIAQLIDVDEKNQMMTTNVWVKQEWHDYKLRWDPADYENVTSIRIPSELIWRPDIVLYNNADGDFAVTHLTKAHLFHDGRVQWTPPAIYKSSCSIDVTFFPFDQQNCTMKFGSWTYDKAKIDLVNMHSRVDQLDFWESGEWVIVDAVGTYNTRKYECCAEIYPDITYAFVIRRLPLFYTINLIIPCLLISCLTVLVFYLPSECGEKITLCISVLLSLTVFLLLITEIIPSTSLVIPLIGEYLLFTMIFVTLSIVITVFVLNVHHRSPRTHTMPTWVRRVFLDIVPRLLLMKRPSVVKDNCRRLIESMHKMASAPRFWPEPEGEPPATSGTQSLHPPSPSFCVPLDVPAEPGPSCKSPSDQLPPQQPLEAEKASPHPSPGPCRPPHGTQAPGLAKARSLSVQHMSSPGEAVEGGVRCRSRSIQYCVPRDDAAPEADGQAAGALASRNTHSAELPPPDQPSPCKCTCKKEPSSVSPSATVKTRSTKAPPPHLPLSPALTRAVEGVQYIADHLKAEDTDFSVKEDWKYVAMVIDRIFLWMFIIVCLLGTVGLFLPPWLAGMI
smiles,measurement,setting,value
C[N+]1(C)CC[C@@H](Oc2ccc(-c3ccc4[nH]ccc4c3)cc2)C1,Activity,[1],Active
CC[N+](CC)(CC)CCOc1ccc(CCc2ccccc2)cc1,Activity,[2],inactive
CC[N+](CC)(CC)CCOc1ccc(-c2cccc3ccccc23)cc1,Ki,[3],0.097 µM
CC[N+](CC)(CC)CCOc1ccc(OCc2ccccc2)cc1,Ki,[4],7.5 µM
